COC(=O)Nc1nc2ccccc2[nH]1
solubility (mole fraction)
Conditions	278.15 K	283.15 K	288.15 K	293.15 K	298.15 K	303.15 K	308.15 K	313.15 K	318.15 K
in DMF	0.000786	0.000861	0.000931	0.00101	0.0011	0.00119	0.00128	0.00138	0.00148
in ethanol	8.29e-06	1.14e-05	1.66e-05	2.28e-05	3.16e-05	4.28e-05	5.74e-05	7.63e-05	9.98e-05
in methanol	3.23e-05	4.07e-05	5.29e-05	6.59e-05	7.95e-05	9.95e-05	0.000121	0.000147	0.000176
in n-propanol	3.28e-06	4.97e-06	8.18e-06	1.24e-05	1.85e-05	2.73e-05	4.04e-05	5.82e-05	8.34e-05
in water	3.3e-07	4e-07	4.91e-07	6e-07	7.35e-07	8.59e-07	1.02e-06	1.21e-06	1.43e-06
